Tests used:
Type in all cases: physicochemical
[1] = Hygroscopicity experiment (dynamic vapor sorption); conditions: 80.0% RH, 25 °C
Procedure: Test conditions for the instruments used in the experiments of the present disclosure: • 1. X-ray powder diffraction • Instrument model: Bruker D8 Focus • X-ray light source: Cu Kα • Kα1 (Å): 1.54060; • Wavelength λ (Å): 1.54060 • Slit (°): 2.5 • Scan mode: θ/2θ, scan range: 3-40° (2θ angle) • Retention time (s): 0.12 • Scanning step length (° 2θ): 0.01 • Voltage: 40 kV • Current: 40 mA • 2. Differential scanning calorimeter • Instrument model: Discovery DSC 2500 • Purging gas: nitrogen • Sample tray: aluminum tray, non-sealing gland • Method: linear heating • Ramping rate: 10 °C/min • Temperature range: 30 °C-400 °C • 3. Thermogravimetric analyzer • Instrument model: Discovery TA 55 • Purging gas: nitrogen • Sample tray: platinum, open • Method: linear heating • Ramping rate: Ramp from a starting temperature of 30 °C to 400 °C at a rate of 10 °C/min • Temperature range: 30 °C-400 °C • 4. Dynamic vapor sorption instrument • Instrument model: DVS Intrinsic. • DVS parameters: • Temperature: 25 °C; • Equilibrium: dm/dt = 0.002%/min • RH (%) test gradient: 10% • Range of RH (%) test gradient: 0%-90%-0%. • 5. Ion chromatography • Instrument model: Thermo Fisher Integrion, No. IC001 • Test method: Conductivity […] • Separation column: Dionex IonpacTM CS12 Guard 4 × 250 mm • Eluent: 20 mM methanesulfonic acid solution • Flow rate: 1.0 mL/min
• (1) Experimental instrument: dynamic vapor sorption DVS Intrinsic. • (2) Experimental conditions: Each test sample was taken and placed in a DVS sample pan for testing. • (3) DVS parameters: • Temperature: 25 °C; • Equilibrium: dm/dt = 0.002%/min • RH (%) test gradient: 10% • Range of RH (%) test gradient: 0%-90%-0%.

[2] = Accelerated experiment (stability at 40 °C, 75% RH)
Procedure: (§1) Each test sample was placed under high temperature (60 °C), high humidity (92.5%), light (7000 lux), or accelerated (40 °C, 75% RH) conditions using a 2 mL screw-thread sample vial in an open state; each sample was placed with packaging (2 layers of medicinal low-density polyethylene bags + 1 layer of polyester/aluminum/polyethylene medicinal composite film bag) under light (7000 lux) or accelerated (40 °C, 75% RH) conditions to investigate the stability of the sample.

[3] = Influencing factor experiment (stability under high temperature, high humidity, light)
Procedure: as §1

[4] = Solubility experiment in water
Procedure: The thermodynamic solubility of the compounds of the present disclosure was determined using the following test method.
The thermodynamic solubility of the compounds of the present disclosure in water was investigated. Water (1000 µL) was measured and placed into a 1 mL transparent glass tube with a stopper. An appropriate amount of each sample was weighed and added to saturate the solution, and the solution was shaken to disperse the sample. […] Then, an appropriate amount of the sample was taken, filtered through a microporous filter membrane, and subjected to content determination using high-performance liquid chromatography with an external standard method. The thermodynamic solubility of each compound in water (µg/mL) was calculated.

[5] = Accelerated (40 °C), packaged, 14d
[6] = Accelerated (40 °C), packaged, 32d
[7] = Light (7000 lux, packaged), 10d
[8] = Light (7000 lux, packaged), 32d

## COc1ccc(Cl)cc1-c1cc(C)ncc1C(=O)Nc1nc2ncc(-c3ccc(C#N)cc3)nc2s1 [Crystal form B]
[1]
  weight gain due to moisture absorption: 1.5%
[2]; 0 h, 0d
  Purity: 98.89%
  Total impurities: 1.11%
[2]; Accelerated (40 °C), open, 7d
  Purity: 98.84%
  Total impurities: 1.16%
[2]; Accelerated (40 °C), open, 14d
  Purity: 98.87%
  Total impurities: 1.13%
[2]; Accelerated (40 °C), open, 32d
  Purity: 98.88%
  Total impurities: 1.12%
[2]; [5]
  Purity: 98.87%
  Total impurities: 1.13%
[2]; [6]
  Purity: 98.82%
  Total impurities: 1.18%
[3]; 0 h, 0d
  Purity: 98.89%
  Total impurities: 1.11%
[3]; High humidity (92.5% RH), 7d
  Purity: 98.60%
  Total impurities: 1.40%
[3]; High humidity (92.5% RH), 14d
  Purity: 98.89%
  Total impurities: 1.11%
[3]; High humidity (92.5% RH), 32d
  Purity: 98.83%
  Total impurities: 1.17%
[3]; High temperature (60 °C), 7d
  Purity: 98.98%
  Total impurities: 1.02%
[3]; High temperature (60 °C), 14d
  Purity: 98.93%
  Total impurities: 1.07%
[3]; High temperature (60 °C), 32d
  Purity: 98.84%
  Total impurities: 1.16%
[3]; Light (7000 lux, open), 7d
  Purity: 98.84%
  Total impurities: 1.16%
[3]; Light (7000 lux, open), 14d
  Purity: 98.85%
  Total impurities: 1.15%
[3]; Light (7000 lux, open), 32d
  Purity: 98.73%
  Total impurities: 1.27%
[3]; [7]
  Purity: 98.90%
  Total impurities: 1.10%
[3]; [8]
  Purity: 98.90%
  Total impurities: 1.10%
[4]; 1h
  Dynamic solubility in water: <0.5 µg/mL
[4]; 2h
  Dynamic solubility in water: <0.5 µg/mL
[4]; 4h
  Dynamic solubility in water: <0.5 µg/mL
[4]; 24h
  Dynamic solubility in water: 0.77 µg/mL

## COc1ccc(Cl)cc1-c1cc(C)ncc1C(=O)Nc1nc2ncc(-c3ccc(C#N)cc3)nc2s1 [Crystal form C]
[1]
  weight gain due to moisture absorption: -4.3%
[2]; 0 h, 0d
  Purity: 99.2%
  Total impurities: 0.8%
[2]; Accelerated (40 °C), open, 7d
  Purity: 99.20%
  Total impurities: 0.80%
[2]; Accelerated (40 °C), open, 14d
  Purity: 99.21%
  Total impurities: 0.79%
[3]; 0 h, 0d
  Purity: 99.2%
  Total impurities: 0.80%
[3]; High humidity (92.5% RH), 7d
  Purity: 99.21%
  Total impurities: 0.79%
[3]; High humidity (92.5% RH), 14d
  Purity: 99.20%
  Total impurities: 0.80%
[3]; High temperature (60 °C), 7d
  Purity: 99.26%
  Total impurities: 0.74%
[3]; High temperature (60 °C), 14d
  Purity: 99.22%
  Total impurities: 0.78%
[3]; Light (7000 lux, open), 7d
  Purity: 98.29%
  Total impurities: 1.71%
[3]; Light (7000 lux, open), 14d
  Purity: 97.16%
  Total impurities: 2.84%
[4]; 1h, 60 min
  Dynamic solubility in water: 857.52 µg/mL
[4]; 4h, 240 min
  Dynamic solubility in water: 1337.74 µg/mL
[4]; 24h, 1440 min
  Dynamic solubility in water: 108.15 µg/mL

## COc1ccc(Cl)cc1-c1cc(C)ncc1C(=O)Nc1nc2ncc(-c3ccc(C#N)cc3)nc2s1 [Crystal form E]
[1]
  weight gain due to moisture absorption: 2.5%
[2]; 0 h, 0d
  Purity: 99.39%
  Total impurities: 0.52%
[2]; Accelerated (40 °C), open, 7d
  Purity: 99.49%
  Total impurities: 0.51%
[2]; accelerated (40 °C, 75% RH)
  physical stability: relatively poor physical stability
[3]; 0 h, 0d
  Purity: 99.39%
  Total impurities: 0.52%
[3]; High humidity (92.5% RH), 11d
  Purity: 99.48%
  Total impurities: 0.52%
[3]; High temperature (60 °C), 11d
  Purity: 99.25%
  Total impurities: 0.75%
[3]; Light (7000 lux, open), 7d
  Purity: 99.24%
  Total impurities: 0.76%
[3]; high humidity (92.5% RH)
  physical stability: relatively poor physical stability
[4]; 1h, 60 min
  Dynamic solubility in water: <0.5 µg/mL
[4]; 2h, 120 min
  Dynamic solubility in water: 1.03 µg/mL
[4]; 4h, 240 min
  Dynamic solubility in water: 2.26 µg/mL
[4]; 24h, 1440 min
  Dynamic solubility in water: 2.72 µg/mL
